Laboratory results reported in patent publication US8252837B2 (TMRC Co., Ltd., priority 2007, dated 2012).

Columns and labels:
[1] = Oil component (base) solubility test; type: physicochemical; conditions: in propylene glycol fatty acid ester
Experimental: Oil Component (Base) Solubility Test
(75% humidity), and at 60° C.

[2] = test system: IL-6 dependent RARα(+) human multiple myeloma cells U266; conditions: SCID mice, oral 10 mg/kg/day for 28 consecutive days, FIG. 2

Row | SMILES | solubility and stability in the dissolved solution [1] | growth of U266 cells (volume of tumor) [2]
1 | CC1(C)CCC(C)(C)c2cc(NC(=O)c3ccc(C(=O)O)cc3)ccc21 [Tamibarotene, 4-[(5,6,7,8-tetrahydro-5,5,8,8-tetramethyl-2-naphthalenyl)carbamoyl]benzoic acid] | optimum | –
2 | CC1=C(/C=C/C(C)=C/C=C/C(C)=C/C(=O)O)C(C)(C)CCC1 [ATRA, all-trans retinoic acid] | – | inhibited the growth
